Reference: patent US20240293367A1, “METHODS OF TREATING DISORDERS WITH A […]” (Cybin IRL Limited, priority 2023, published 2024)
Read-outs that look alike come from different tables or passages of the source.

Experiment: Phase I/IIa clinical PK of oral psilocin-d10, plasma, noncompartmental analysis (Cohorts 1-6)
Assay type: in vivo, human
Settings: for AUC(0-t) / AUC(0-inf) / Cmax / half-life / Vd/F / Tmax: human, plasma; for AUC(0-t) / AUC(0-inf) / Cmax / half-life / Vd/F: po; for AUC(0-inf): read-out: AUC0-inf Mean (SD); for half-life: read-out: T1/2 Mean (SD) (converted); for Vd/F: read-out: Vz/F Mean (SD); for Tmax: read-out: Tmax Median
Experimental: Phase I/IIa, Randomized, Double-Blind, Placebo-Controlled Study which assesses the safety, tolerability, pharmacokinetics, and pharmacodynamics of multiple ascending oral doses of psilocin-d10 in participants with and without MDD (ClinicalTrials.gov Identifier: NCT05385783). All subjects receiving study medication in Cohorts 1-6 received oral psilocin-d10 powder in solution (0.1M citric acid+Tang orange drink, 30 mL dose in a dose cup) and subjects receiving placebo received a similar volume of Tang orange drink without the psilocin-d10 study drug. All subjects receiving study medication in the relative bioavailability (BA) cohort received powder-filled capsules containing psilocin-d10 benzenesulfonate salt by ingestion with approximately 240 mL room temperature water, or oral psilocin-d10 powder in solution (0.1M citric acid+Tang orange drink, 30 mL dose in a dose cup) in a cross-over design. Psilocin-d10 for the powder in solution dosage form was manufactured by Patheon Pharma Services, with an isotopic purity of 79.89%. Psilocin-d10 benzenesulfonate salt for the powder-filled capsule dosage form was manufactured by Patheon Pharma Services, with an isotopic purity of 85.20%.
Cohorts 1, 4, 5, and 6 of the study was comprised of participants with MDD. Cohorts 2, 3, and the relative BA cohort of the study were comprised of normal healthy volunteers (NHV). […] MDD participants had been on a stable dose of antidepressant medication for at least one month prior to screening with an inadequate response to that antidepressant medication as judged by the Investigator, and continued to receive their prescribed antidepressant throughout the course of the study.
Cohort 1. For Cohort 1, 2 sentinel subjects were randomized and dosed, including 1 subject who received a psilocin-d10 1 mg oral dose and 1 subject who received a placebo dose. After the sentinel subjects were dosed, an additional 2 subjects were dosed, including a replacement subject for one of the sentinel subjects who withdrew consent and one additional subject. In total, four Cohort 1 subjects received a first dose of study medication on Day 1, and 3 subjects received a second dose of study medication on Day 22. For the first dose, 2 subjects received an active psilocin-d10 1 mg dose and 2 subjects received placebo. For the second dose, 3 subjects received an active psilocin-d10 1 mg dose.
Cohort 2. For Cohort 2, 4 subjects were randomized and dosed on Day 1 (2 subjects on one day, 2 subjects on the next day), including 3 subjects who received a psilocin-d10 3 mg oral dose and 1 subject who received a placebo dose. These same 4 subjects were again dosed on Day 8 (2 subjects on one day, 2 subjects on the next day), with all 4 subjects receiving a psilocin-d10 8 mg oral dose (note the actual washout was 11 days between doses).
Cohort 3. For Cohort 3 Day 1, 4 subjects were randomized and dosed on Day 1 (2 subjects on one day, 2 subjects on the next day), including 3 subjects who received a psilocin-do 8 mg oral dose and 1 subject who received a placebo dose. […] Another subject was dosed and left the study after the 2-hour PK sampling and has limited PK samples available for analysis from 0 to 2 hours—this subject's PK data has thus been excluded from the analysis presented hereinafter. For Cohort 3 Day 8, 3 subjects were dosed on Day 8 with a psilocin-d10 10 mg dose (2 sentinel subjects were dosed on one day, 1 non-sentinel subject was dosed on the next day).
Cohorts 4 and 5. For Cohorts 4 and 5, 12 participants each (24 participants total) were randomized in a 3:1 ratio to receive 12 mg of psilocin-d10 or matched placebo in a single dosing session on Day 1. Following a 21-day interval, all participants received a dose of 12 mg psilocin-d10 on Day 22 (second dose for participants originally randomized to psilocin-d10, first dose for participants randomized to placebo), and were followed to Day 42.
Cohort 6. […]

[1] = 8 mg, 8 mg oral, Cohorts 2 and 3 NHV, pooled
[2] = 10 mg, 10 mg oral, Cohort 3 NHV, Day 8
[3] = 12 mg, 12 mg oral, Cohort 4 MDD, Day 1 and Day 22
[4] = 12 mg, 12 mg oral, Cohort 5 MDD, Day 1 and Day 22
[5] = 12 mg, 12 mg oral, Cohorts 4 and 5 MDD, Day 1 and Day 22
[6] = 16 mg, 16 mg oral, Cohort 6 MDD, all subjects incl. 3 with emesis

For `[2H]C([2H])([2H])N(C([2H])([2H])[2H])C([2H])([2H])C([2H])([2H])c1c[nH]c2cccc(O)c12` [psilocin-d10, 3-(2-(bis(methyl-d3)amino)ethyl-1,1,2,2-d4)-1H-indol-4-ol], the AUC(0-t) (8 mg, 8 mg oral, Cohorts 2 and 3 NHV, pooled, 2 subjects excluded, read-out: AUC0-24 Mean (SD)) was 84 ng·h/mL, the AUC(0-inf) [1] was 87.8 ng·h/mL and the AUC(0-t) (8 mg, 8 mg oral, Cohorts 2 and 3 NHV, pooled, read-out: AUClast Mean (SD)) was 84 ng·h/mL. The Cmax (8 mg, 8 mg oral, Cohorts 2 and 3 NHV, pooled, read-out: Cmax Median) was 17.1 ng/mL, the half-life [1] was 331 min and the Vd/F [1] was 744 L. The AUC(0-t) (10 mg, 10 mg oral, Cohort 3 NHV, Day 8, read-out: AUC0-24 Mean (SD)) was 101 ng·h/mL, the AUC(0-inf) [2] was 106 ng·h/mL and the AUC(0-t) (10 mg, 10 mg oral, Cohort 3 NHV, Day 8, read-out: AUClast Mean (SD)) was 101 ng·h/mL. It also gave a Cmax (10 mg, 10 mg oral, Cohort 3 NHV, Day 8, read-out: Cmax Mean (SD)) of 13.4 ng/mL, a Cmax (10 mg, 10 mg oral, Cohort 3 NHV, Day 8, read-out: Cmax Median) of 10.9 ng/mL and a half-life [2] of 307 min. For the same molecule, the Vd/F [2] was 758 L, the AUC(0-t) (12 mg, 12 mg oral, Cohort 4 MDD, Day 1 and Day 22, read-out: AUC0-24 Mean (SD)) was 155 ng·h/mL and the AUC(0-inf) [3] was 165 ng·h/mL. It also gave an AUC(0-t) (12 mg, 12 mg oral, Cohort 4 MDD, Day 1 and Day 22, read-out: AUClast Mean (SD)) of 154 ng·h/mL, a Cmax (12 mg, 12 mg oral, Cohort 4 MDD, Day 1 and Day 22, read-out: Cmax Mean (SD)) of 19.7 ng/mL and a Cmax (12 mg, 12 mg oral, Cohort 4 MDD, Day 1 and Day 22, read-out: Cmax Median) of 18.6 ng/mL. The half-life [3] was 337 min, the Vd/F [3] was 668 L and the AUC(0-t) (12 mg, 12 mg oral, Cohort 5 MDD, Day 1 and Day 22, read-out: AUC0-24 Mean (SD)) was 137 ng·h/mL. The AUC(0-inf) [4] was 144 ng·h/mL, the AUC(0-t) (12 mg, 12 mg oral, Cohort 5 MDD, Day 1 and Day 22, read-out: AUClast Mean (SD)) was 137 ng·h/mL and the Cmax (12 mg, 12 mg oral, Cohort 5 MDD, Day 1 and Day 22, read-out: Cmax Mean (SD)) was 16.9 ng/mL. It also gave a Cmax (12 mg, 12 mg oral, Cohort 5 MDD, Day 1 and Day 22, read-out: Cmax Median) of 14.8 ng/mL, a half-life [4] of 305 min and a Vd/F [4] of 666 L. It also gave an AUC(0-t) (12 mg, 12 mg oral, Cohorts 4 and 5 MDD, Day 1 and Day 22, read-out: AUC0-24 Mean (SD)) of 146 ng·h/mL, an AUC(0-inf) [5] of 155 ng·h/mL and an AUC(0-t) (12 mg, 12 mg oral, Cohorts 4 and 5 MDD, Day 1 and Day 22, read-out: AUClast Mean (SD)) of 145 ng·h/mL. For the same molecule, the Cmax (12 mg, 12 mg oral, Cohorts 4 and 5 MDD, Day 1 and Day 22, read-out: Cmax Mean (SD)) was 18.2 ng/mL, the Cmax (12 mg, 12 mg oral, Cohorts 4 and 5 MDD, Day 1 and Day 22, read-out: Cmax Median) was 16.2 ng/mL and the half-life [5] was 321 min. The Vd/F [5] was ~667 L, the Cmax (16 mg, 16 mg oral, Cohort 6 MDD, Day 1 and Day 22, all subjects incl. 3 with emesis, read-out: Cmax Mean (SD)) was 19.8 ng/mL and the AUC(0-t) (16 mg, 16 mg oral, Cohort 6 MDD, all subjects incl. 3 with emesis, read-out: AUC0-24 Mean (SD)) was 155 ng·h/mL. It also gave an AUC(0-inf) [6] of 161 ng·h/mL, an AUC(0-t) (16 mg, 16 mg oral, Cohort 6 MDD, all subjects incl. 3 with emesis, read-out: AUClast Mean (SD)) of 151 ng·h/mL and a Cmax (16 mg, 16 mg oral, Cohort 6 MDD, all subjects incl. 3 with emesis, read-out: Cmax Median) of 17.4 ng/mL. It also gave a half-life [6] of 334 min, a Vd/F [6] of 986 L and a Tmax (1 mg oral, Cohort 1 MDD, Day 1 and Day 22 pooled) of 1 h. For the same molecule, the Tmax (3 mg oral, Cohort 2 NHV, Day 1) was 2 h, the Tmax (8 mg oral, Cohorts 2 and 3 NHV, pooled) was 2 h and the Tmax (10 mg oral, Cohort 3 NHV, Day 8) was 1 h. The Tmax (12 mg oral, Cohorts 4 and 5 MDD, Day 1 and Day 22) was 1.03 h, the Tmax (16 mg oral, Cohort 6 MDD, all subjects incl. 3 with emesis) was 1.03 h and the “mean clearance (CL/F), on average” value (range of means, 1 to 10 mg doses) was 85.22 to 104.7 L/h.
